Reference: US7906308B2, “Phosphorylation and regulation of Akt/PKB by the rictor-mTOR complex” (Whitehead Institute for Biomedical Research, priority 2005, dated 2011)

Key:
rictor-mTOR complex = target: T1, rictor-mTOR complex (Homo sapiens, UniProt P42345); assay: rictor-mTOR immunoprecipitate kinase assay with Akt1/PKB1 as substrate; type: biochemical; conditions: immunoprecipitates from HEK-293T or HeLa cells; FIG. 3C
T1 construct: Immunoprecipitates prepared from lysates of HEK-293T or HeLa cells with the indicated antibodies; endogenous in cells; host or cells: A1: HEK-293T or HeLa; A11: PC3, BJAB, Jurkat, HeLa, H460 (treated with rapamycin before lysis)
Procedure: For all immunoprecipitation experiments the lysis buffer contained 0.3% CHAPS instead of 1% Triton in order to preserve the integrity of the mTOR complexes (D. D. Sarbassov et al., Curr Biol 14, 1296 (2004); D.-H. Kim et al., Cell 110, 163 (2002)). 4 μg of the indicated antibodies were added to the cleared cellular lysates and incubated with rotation for 90-min. 25 μl of a 50% slurry of protein G-sepharose was then added and the incubation continued for 1 h. Immunoprecipitates captured with protein G-sepharose were washed four times with the CHAPS Lysis Buffer and once with the rictor-mTOR kinase buffer (25 mM Hepes pH 7.5, 100 mM potassium acetate, 1 mM MgCl2). […] After a quick spin, the supernatant was removed from the protein G-sepharose and analyzed by immunoblotting (D.-H. Kim et al., Cell 110, 163 (2002)). […] Supernatants were used in the Akt1/PKB1 kinase assay as described below and were also analyzed by immunoblotting. The pelleted G-sepharose beads were also analyzed by immunoblotting to determine the levels of rictor, mTOR, and raptor in the immunoprecipitates. Akt1/PKB1 kinase activity was determined using Crosstide (Upstate Biotechnology, #12-331) as substrate as recommended by the manufacturers protocol. […] After the washing, the P81 squares were dried and radioactivity read in a scintillation counter.

PC3 cells [1] = conditions: literature (Chinni & Sarkar); cited from earlier work
PC3 cells [2] = assay: apoptosis by DNA fragmentation (Cell Death Detection Elisa); conditions: PC3 cells expressing wild-type or S473D Akt1/PKB1, 100 μM
Procedure: Cells were selected for one week in 200 μg/ml hygromycin before use. 15,000 PC3 (MSCV controls, WT Akt1/PKB1, or 473D Akt1/PKB1) cells were seeded in the wells of a 96 well-plate and cultured overnight. The next day the cells were rinsed once in serum-free medium and then cultured for 48 hrs in serum-free medium containing either DMSO (the small molecule vehicle), 100 nM rapamycin, 100 μM indole-3-carbinol, or both rapamycin and indole-3-carbinol. When indole-3-carbinol was used, 0.002% BSA was added to the medium. After 48 hours in culture all cells (adherent and floating) were processed with the Cell Death Detection Elisa plus (Roche, cat# 1774425) as described by the manufacturer.

[3] = Morrisett et al. 2003; cited from earlier work
[4] = tissue penetration with phospho-S6 as marker; type: in vivo, mice; conditions: 10 mg/kg intraperitoneal daily
Procedure: (§1) 1 mg of rapamycin was dissolved in 20 μl of ethanol, which was then diluted with Ringer's saline solution to a final concentration of 1 mg/ml directly before use. Three-month old male C57BL/6NTac (Taconic) mice were administered daily intraperitioneal injections of 10 mg/kg rapamycin or the drug vehicle for 7 days. Mice were then euthanized with CO2, organs were harvested into RIPA buffer, and homogenized with mechanical disruption followed by sonication. […] The experiment was repeated twice with similar results.

[5] = food intake during 7-day treatment; type: in vivo, mice; conditions: 10 mg/kg daily
Procedure: as §1

mTORC2 assembly = mTORC2 assembly (Homo sapiens, UniProt P42345+P62942); assay: 35S pulse-chase of newly synthesized mTOR bound to rictor; type: cell-based; conditions: 100 nM
Procedure: 4×10^6 Hela or PC3 cells growing in 100 mm dishes were treated with 100 nM rapamycin or vehicle control for 20 minutes, rinsed once in methionine- and cysteine-free DMEM, and then incubated in 3.5 ml of the same medium containing 10% dialyzed serum and 0.1 mCi/ml of ^35S-methionine/^35S-cysteine (Express Protein Labeling Mix, Perkin Elmer). After allowing the cells to label for 30 minutes, the cells were washed once in the normal culture medium and incubated in fresh medium for the periods of time indicated in the figures. […] Quantification was performed using images acquired with a phosphoimager.

rictor = rictor (UniProt Q6R327)
[6] = target: full length, wild-type Akt1/PKB1 (inactive, Upstate Biotechnology #14-279) (UniProt P31749)
Chain of full length, wild-type Akt1/PKB1 (inactive, Upstate Biotechnology #14-279) (P31749 whole entry, looked up, tested part not stated): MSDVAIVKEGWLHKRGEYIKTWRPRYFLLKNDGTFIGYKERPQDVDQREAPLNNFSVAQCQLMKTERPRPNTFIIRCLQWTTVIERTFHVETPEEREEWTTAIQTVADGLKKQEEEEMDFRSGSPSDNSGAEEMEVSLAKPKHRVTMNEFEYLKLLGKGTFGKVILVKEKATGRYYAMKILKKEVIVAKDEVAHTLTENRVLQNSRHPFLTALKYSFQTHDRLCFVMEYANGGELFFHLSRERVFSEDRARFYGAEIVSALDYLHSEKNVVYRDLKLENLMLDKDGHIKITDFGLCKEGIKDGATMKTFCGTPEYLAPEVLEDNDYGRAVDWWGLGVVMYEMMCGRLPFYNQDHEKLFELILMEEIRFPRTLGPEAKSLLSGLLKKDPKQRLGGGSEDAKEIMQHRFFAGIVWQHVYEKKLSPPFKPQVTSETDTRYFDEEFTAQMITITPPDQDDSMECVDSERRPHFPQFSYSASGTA

Chain of mTORC2 assembly (P62942 2-108 limits assumed, other chains not shown): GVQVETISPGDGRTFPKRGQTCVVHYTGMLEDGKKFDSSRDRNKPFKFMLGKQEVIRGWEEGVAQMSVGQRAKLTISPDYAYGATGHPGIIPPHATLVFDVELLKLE

CN[C@@H]1C[C@H]2O[C@@](C)([C@@H]1OC)n1c3ccccc3c3c4c(c5c6ccccc6n2c5c31)C(=O)NC4 [Staurosporine, staurosporine]
in vitro phosphorylation of Akt/PKB by rictor-mTOR (rictor-mTOR complex): did not decrease

OCc1c[nH]c2ccccc12 [indole-3-carbinol]
apoptosis in PC3 cells (PC3 cells [1]): known to induce apoptosis | induction of apoptosis (PC3 cells [2]): decreased the capacity of indole-3-carbinol to induce apoptosis

CO[C@H]1C[C@@H]2CC[C@@H](C)[C@@](O)(O2)C(=O)C(=O)N2CCCC[C@H]2C(=O)O[C@H]([C@H](C)C[C@@H]2CC[C@@H](O)[C@H](OC)C2)CC(=O)[C@H](C)/C=C(\C)[C@@H](O)[C@@H](OC)C(=O)[C@H](C)C[C@H](C)/C=C/C=C/C=C/1C [rapamycin]
side effect in patients [3]: hyperlipidemia commonly seen | tissue penetration [4]: penetrates all major tissues except the brain | food intake versus vehicle [5]: ate similar amounts | interaction between newly-synthesized mTOR and rictor prevented (mTORC2 assembly; HeLa cells): 80% | interaction between newly-synthesized mTOR and rictor prevented (mTORC2 assembly; PC3 cells): 100%

mTOR (mammalian Target of Rapamycin kinase)
in vitro kinase activity of rictor immunoprecipitates towards Akt/PKB (rictor): in HeLa and H460 cells treated with rapamycin for 24 hours, a greater amount of mTOR remained bound to rictor and this correlated with a higher level of kinase activity towards Akt/PKB | in vitro phosphorylation of Akt/PKB by immunoprecipitates (rictor): the raptor immunoprecipitates also contain mTOR but did not phosphorylate Akt/PKB

rictor-mTOR complex
phosphorylation of S473 of Akt/PKB in vitro (immunoblot) [6]: Rictor-mTOR complexes isolated from HEK-293T or HeLa phosphorylated S473 but not T308 of full length, wild-type Akt/PKB in vitro
